# Laboratory results reported in the kinase profiling compilation of Christmann-Franck et al. (2016).
# Experiments:
# Assay in all cases: KINOMEscan competition binding
# Conditions in all cases: compound 0.1 µM
# MAPKAPK2 (human) = MAPKAPK2 (human) (UniProt P49137)
# [1] = system: ALK (human), Q9UM73 [C1156Y]
# PIM1 (human) = PIM1 (human) (UniProt P11309)
# PKMYT1 (human) = PKMYT1 (human) (UniProt Q99640)
# PHKG2 (human) = PHKG2 (human) (UniProt P15735)
# [2] = system: RET (human), P07949 [V804L]
# TBK1 (human) = TBK1 (human) (UniProt Q9UHD2)
# CLK4 (human) = CLK4 (human) (UniProt Q9HAZ1)
# MAP3K15 (human) = MAP3K15 (human) (UniProt Q6ZN16)
# SGK3 (human) = SGK3 (human) (UniProt Q96BR1)
# PRKACB (human) = PRKACB (human) (UniProt P22694)
# TAOK1 (human) = TAOK1 (human) (UniProt Q7L7X3)
# ULK1 (human) = ULK1 (human) (UniProt O75385)
# WNK1 (human) = WNK1 (human) (UniProt Q9H4A3)
# ACVR2B (human) = ACVR2B (human) (UniProt Q13705)
# PIP4K2C (human) = PIP4K2C (human) (UniProt Q8TBX8)
# PTK6 (human) = PTK6 (human) (UniProt Q13882)
# PRKD1 (human) = PRKD1 (human) (UniProt Q15139)
# CSNK2A1 (human) = CSNK2A1 (human) (UniProt P68400)
# ROCK1 (human) = ROCK1 (human) (UniProt Q13464)
# FGFR3 (human) = FGFR3 (human) (UniProt P22607)
# DAPK3 (human) = DAPK3 (human) (UniProt O43293)
# MET (human) = MET (human) (UniProt P08581)
# FGFR4 (human) = FGFR4 (human) (UniProt P22455)
# PLK3 (human) = PLK3 (human) (UniProt Q9H4B4)
# [3] = system: MET (human), P08581 [Y1235D]
# ANKK1 (human) = ANKK1 (human) (UniProt Q8NFD2)
# BRSK1 (human) = BRSK1 (human) (UniProt Q8TDC3)
# CHEK1 (human) = CHEK1 (human) (UniProt O14757)
# RAF1 (human) = RAF1 (human) (UniProt P04049)
# EPHA6 (human) = EPHA6 (human) (UniProt Q9UF33)
# CSK (human) = CSK (human) (UniProt P41240)
# VRK2 (human) = VRK2 (human) (UniProt Q86Y07)
# MST4 (human) = MST4 (human) (UniProt Q9P289)
# MAP4K1 (human) = MAP4K1 (human) (UniProt Q92918)
# TESK1 (human) = TESK1 (human) (UniProt Q15569)
# MAP3K7 (human) = MAP3K7 (human) (UniProt O43318)
# PIM3 (human) = PIM3 (human) (UniProt Q86V86)
# MYO3B (human) = MYO3B (human) (UniProt Q8WXR4)
# TRPM6 (human) = TRPM6 (human) (UniProt Q9BX84)
# MARK2 (human) = MARK2 (human) (UniProt Q7KZI7)
# RET (human), P07949 [V804L], sequence (P07949 whole entry V804L, looked up): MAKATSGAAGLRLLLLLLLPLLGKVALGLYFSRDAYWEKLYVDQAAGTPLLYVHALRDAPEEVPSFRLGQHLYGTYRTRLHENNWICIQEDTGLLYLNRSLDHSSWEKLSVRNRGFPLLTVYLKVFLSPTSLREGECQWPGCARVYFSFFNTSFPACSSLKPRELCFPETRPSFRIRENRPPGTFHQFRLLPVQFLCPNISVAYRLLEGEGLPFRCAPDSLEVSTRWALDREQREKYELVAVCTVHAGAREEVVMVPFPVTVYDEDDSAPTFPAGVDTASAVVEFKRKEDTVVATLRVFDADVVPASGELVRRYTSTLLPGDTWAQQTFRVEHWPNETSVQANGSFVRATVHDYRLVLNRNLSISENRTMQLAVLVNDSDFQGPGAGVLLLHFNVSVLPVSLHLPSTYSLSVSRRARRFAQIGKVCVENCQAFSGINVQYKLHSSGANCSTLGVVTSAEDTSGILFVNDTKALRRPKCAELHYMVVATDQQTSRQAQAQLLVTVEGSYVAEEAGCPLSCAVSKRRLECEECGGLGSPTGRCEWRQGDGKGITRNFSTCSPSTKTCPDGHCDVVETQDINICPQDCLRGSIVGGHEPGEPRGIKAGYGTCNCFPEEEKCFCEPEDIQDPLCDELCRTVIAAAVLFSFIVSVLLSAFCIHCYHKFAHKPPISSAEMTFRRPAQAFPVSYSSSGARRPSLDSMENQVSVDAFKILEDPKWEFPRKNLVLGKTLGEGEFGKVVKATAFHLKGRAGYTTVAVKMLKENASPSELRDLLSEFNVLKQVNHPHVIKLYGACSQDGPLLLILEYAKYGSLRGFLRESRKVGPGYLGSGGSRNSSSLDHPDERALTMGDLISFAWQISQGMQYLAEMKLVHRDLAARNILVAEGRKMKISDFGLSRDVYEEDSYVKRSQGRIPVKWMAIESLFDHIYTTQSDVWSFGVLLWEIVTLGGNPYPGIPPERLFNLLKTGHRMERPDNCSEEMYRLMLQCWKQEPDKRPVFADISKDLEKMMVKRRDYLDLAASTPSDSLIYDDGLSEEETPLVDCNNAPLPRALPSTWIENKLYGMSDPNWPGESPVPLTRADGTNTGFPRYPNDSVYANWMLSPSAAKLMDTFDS
# MAP3K15 (human), sequence (Q6ZN16 whole entry, looked up): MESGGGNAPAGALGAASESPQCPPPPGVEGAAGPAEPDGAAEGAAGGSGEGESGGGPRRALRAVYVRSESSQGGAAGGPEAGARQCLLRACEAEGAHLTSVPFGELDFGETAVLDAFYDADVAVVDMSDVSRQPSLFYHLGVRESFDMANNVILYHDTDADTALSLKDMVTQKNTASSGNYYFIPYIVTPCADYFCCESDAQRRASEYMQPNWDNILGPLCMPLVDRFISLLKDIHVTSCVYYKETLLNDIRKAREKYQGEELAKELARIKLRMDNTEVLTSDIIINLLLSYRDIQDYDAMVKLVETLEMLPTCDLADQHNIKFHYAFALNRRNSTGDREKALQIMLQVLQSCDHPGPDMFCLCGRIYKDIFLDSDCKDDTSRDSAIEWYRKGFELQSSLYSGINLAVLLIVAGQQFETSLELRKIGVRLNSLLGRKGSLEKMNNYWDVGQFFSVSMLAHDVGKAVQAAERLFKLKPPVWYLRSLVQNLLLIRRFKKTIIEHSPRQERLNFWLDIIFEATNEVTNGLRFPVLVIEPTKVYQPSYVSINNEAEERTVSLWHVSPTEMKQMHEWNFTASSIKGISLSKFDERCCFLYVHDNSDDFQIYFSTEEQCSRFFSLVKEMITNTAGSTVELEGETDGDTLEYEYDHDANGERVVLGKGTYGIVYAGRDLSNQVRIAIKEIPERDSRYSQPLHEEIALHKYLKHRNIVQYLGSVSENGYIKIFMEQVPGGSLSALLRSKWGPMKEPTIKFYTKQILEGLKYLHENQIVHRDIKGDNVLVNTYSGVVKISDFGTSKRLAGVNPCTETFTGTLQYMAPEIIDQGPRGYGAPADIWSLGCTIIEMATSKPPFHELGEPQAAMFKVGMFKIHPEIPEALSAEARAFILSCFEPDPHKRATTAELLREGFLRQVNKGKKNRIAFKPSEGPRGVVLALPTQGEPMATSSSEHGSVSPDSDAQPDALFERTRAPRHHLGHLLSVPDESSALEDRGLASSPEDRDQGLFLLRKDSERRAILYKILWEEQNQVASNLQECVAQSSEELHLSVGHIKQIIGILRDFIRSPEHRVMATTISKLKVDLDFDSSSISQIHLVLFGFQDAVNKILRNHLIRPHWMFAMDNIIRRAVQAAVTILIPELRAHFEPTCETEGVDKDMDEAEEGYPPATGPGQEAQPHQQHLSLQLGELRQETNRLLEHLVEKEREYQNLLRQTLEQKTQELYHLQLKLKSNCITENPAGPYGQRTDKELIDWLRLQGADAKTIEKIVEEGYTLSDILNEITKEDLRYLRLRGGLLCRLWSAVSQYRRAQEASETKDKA
# CSNK2A1 (human), sequence (P68400 whole entry, looked up): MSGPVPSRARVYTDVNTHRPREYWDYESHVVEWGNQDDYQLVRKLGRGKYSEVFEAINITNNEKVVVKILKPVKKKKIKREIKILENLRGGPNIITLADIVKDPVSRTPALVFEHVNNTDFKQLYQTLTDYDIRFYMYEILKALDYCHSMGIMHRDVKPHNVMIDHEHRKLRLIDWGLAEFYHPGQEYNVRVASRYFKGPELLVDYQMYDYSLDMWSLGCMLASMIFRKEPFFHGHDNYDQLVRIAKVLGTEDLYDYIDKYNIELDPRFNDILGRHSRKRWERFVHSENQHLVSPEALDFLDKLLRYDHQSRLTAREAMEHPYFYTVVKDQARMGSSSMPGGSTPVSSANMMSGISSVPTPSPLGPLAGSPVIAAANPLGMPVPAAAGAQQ
# TESK1 (human), sequence (Q15569 whole entry, looked up): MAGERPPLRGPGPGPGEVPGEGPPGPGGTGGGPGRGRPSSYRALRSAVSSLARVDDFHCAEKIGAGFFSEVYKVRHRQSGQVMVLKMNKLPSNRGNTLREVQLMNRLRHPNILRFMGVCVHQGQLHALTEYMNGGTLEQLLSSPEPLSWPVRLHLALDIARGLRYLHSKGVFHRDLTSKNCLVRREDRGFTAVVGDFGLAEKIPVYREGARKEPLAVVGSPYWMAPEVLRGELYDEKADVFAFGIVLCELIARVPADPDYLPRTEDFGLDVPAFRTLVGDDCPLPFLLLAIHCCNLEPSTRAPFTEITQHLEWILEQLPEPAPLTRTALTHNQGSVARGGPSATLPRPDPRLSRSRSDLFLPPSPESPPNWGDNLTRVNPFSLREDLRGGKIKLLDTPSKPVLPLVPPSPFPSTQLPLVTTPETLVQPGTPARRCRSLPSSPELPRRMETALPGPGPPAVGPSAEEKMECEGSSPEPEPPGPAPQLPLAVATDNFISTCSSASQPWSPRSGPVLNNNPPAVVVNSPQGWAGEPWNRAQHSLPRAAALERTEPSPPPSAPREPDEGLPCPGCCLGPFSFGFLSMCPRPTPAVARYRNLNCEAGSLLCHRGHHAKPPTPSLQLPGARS
# MAP4K1 (human), sequence (Q92918 whole entry, looked up): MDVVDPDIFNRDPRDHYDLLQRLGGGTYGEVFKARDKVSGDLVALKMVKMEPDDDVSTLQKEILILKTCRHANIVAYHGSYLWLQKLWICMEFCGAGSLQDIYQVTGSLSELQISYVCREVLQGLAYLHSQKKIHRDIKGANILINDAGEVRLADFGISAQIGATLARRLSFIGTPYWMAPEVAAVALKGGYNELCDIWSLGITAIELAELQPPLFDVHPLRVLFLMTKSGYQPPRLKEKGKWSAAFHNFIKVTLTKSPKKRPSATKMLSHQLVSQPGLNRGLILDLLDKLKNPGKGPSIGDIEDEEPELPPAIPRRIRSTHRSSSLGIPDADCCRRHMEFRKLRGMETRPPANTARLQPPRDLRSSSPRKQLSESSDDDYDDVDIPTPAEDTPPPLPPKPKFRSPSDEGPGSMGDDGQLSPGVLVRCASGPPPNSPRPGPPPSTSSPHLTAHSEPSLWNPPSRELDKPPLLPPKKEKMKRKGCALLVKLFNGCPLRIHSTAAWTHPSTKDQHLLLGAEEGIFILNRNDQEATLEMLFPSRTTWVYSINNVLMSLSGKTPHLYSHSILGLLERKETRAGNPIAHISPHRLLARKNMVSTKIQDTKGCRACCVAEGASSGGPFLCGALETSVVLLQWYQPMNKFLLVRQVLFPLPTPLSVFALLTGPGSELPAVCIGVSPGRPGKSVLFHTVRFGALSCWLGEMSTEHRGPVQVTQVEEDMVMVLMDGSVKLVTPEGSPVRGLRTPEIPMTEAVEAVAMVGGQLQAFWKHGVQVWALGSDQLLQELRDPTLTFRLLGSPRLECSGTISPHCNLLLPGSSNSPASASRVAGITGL
# DAPK3 (human), sequence (O43293 whole entry, looked up): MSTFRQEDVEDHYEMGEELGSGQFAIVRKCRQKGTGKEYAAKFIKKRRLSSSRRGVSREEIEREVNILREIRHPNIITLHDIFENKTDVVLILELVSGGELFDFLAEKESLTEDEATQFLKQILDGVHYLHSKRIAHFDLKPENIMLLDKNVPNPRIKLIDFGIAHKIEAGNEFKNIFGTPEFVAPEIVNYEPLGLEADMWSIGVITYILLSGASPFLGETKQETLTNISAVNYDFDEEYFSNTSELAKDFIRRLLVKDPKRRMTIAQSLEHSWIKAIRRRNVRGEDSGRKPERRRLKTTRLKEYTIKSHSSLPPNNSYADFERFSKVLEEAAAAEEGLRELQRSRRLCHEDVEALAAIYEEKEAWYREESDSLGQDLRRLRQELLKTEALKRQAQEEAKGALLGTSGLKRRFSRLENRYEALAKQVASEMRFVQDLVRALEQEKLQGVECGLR
compound,measurement,setting,value
CCc1ccc(C(=O)Nc2cc(CN3CCN(C)CC3)cc(C(F)(F)F)c2)cc1C#Cc1cnc2ccnn2c1,"kinase still bound, per cent of control",MAPKAPK2 (human),100%
same,"kinase still bound, per cent of control",[1],97%
same,"kinase still bound, per cent of control",PIM1 (human),80%
same,"kinase still bound, per cent of control",PKMYT1 (human),100%
same,"kinase still bound, per cent of control",PHKG2 (human),66%
same,"kinase still bound, per cent of control",[2],86%
same,"kinase still bound, per cent of control",TBK1 (human),100%
same,"kinase still bound, per cent of control",CLK4 (human),100%
same,"kinase still bound, per cent of control",MAP3K15 (human),100%
same,"kinase still bound, per cent of control",SGK3 (human),100%
same,"kinase still bound, per cent of control",PRKACB (human),100%
same,"kinase still bound, per cent of control",TAOK1 (human),100%
same,"kinase still bound, per cent of control",ULK1 (human),100%
same,"kinase still bound, per cent of control",WNK1 (human),100%
same,"kinase still bound, per cent of control",ACVR2B (human),100%
same,"kinase still bound, per cent of control",PIP4K2C (human),100%
same,"kinase still bound, per cent of control",PTK6 (human),100%
same,"kinase still bound, per cent of control",PRKD1 (human),100%
same,"kinase still bound, per cent of control",CSNK2A1 (human),100%
same,"kinase still bound, per cent of control",ROCK1 (human),83%
same,"kinase still bound, per cent of control",FGFR3 (human),100%
same,"kinase still bound, per cent of control",DAPK3 (human),80%
same,"kinase still bound, per cent of control",MET (human),100%
same,"kinase still bound, per cent of control",FGFR4 (human),86%
same,"kinase still bound, per cent of control",PLK3 (human),100%
same,"kinase still bound, per cent of control",[3],55%
same,"kinase still bound, per cent of control",ANKK1 (human),100%
same,"kinase still bound, per cent of control",BRSK1 (human),100%
same,"kinase still bound, per cent of control",CHEK1 (human),100%
same,"kinase still bound, per cent of control",RAF1 (human),57%
same,"kinase still bound, per cent of control",EPHA6 (human),63%
same,"kinase still bound, per cent of control",CSK (human),92%
same,"kinase still bound, per cent of control",VRK2 (human),100%
same,"kinase still bound, per cent of control",MST4 (human),100%
same,"kinase still bound, per cent of control",MAP4K1 (human),100%
same,"kinase still bound, per cent of control",TESK1 (human),73%
same,"kinase still bound, per cent of control",MAP3K7 (human),100%
same,"kinase still bound, per cent of control",PIM3 (human),77%
same,"kinase still bound, per cent of control",MYO3B (human),100%
same,"kinase still bound, per cent of control",TRPM6 (human),90%
same,"kinase still bound, per cent of control",MARK2 (human),100%
